PMC5784132, “Investigation of 20S-hydroxyvitamin D3 analogs and their 1α-OH derivatives as potent vitamin D receptor agonists with anti-inflammatory activities” (Scientific Reports, 2018)

Legend:
[1] = biological target: T1, rat CYP24A1 (Rattus norvegicus, UniProt Q09128); test: Kinetics of metabolism of analogs in phospholipid vesicles by rat CYP24A1; format: in vitro ADME; settings: for Km: rat CYP24A1 0.14 µM, phospholipid vesicles, 1 min incubation, ± SE from curve fit
T1 construct: made in house; host or cells: E. coli
T1 sequence (Q09128 36-514): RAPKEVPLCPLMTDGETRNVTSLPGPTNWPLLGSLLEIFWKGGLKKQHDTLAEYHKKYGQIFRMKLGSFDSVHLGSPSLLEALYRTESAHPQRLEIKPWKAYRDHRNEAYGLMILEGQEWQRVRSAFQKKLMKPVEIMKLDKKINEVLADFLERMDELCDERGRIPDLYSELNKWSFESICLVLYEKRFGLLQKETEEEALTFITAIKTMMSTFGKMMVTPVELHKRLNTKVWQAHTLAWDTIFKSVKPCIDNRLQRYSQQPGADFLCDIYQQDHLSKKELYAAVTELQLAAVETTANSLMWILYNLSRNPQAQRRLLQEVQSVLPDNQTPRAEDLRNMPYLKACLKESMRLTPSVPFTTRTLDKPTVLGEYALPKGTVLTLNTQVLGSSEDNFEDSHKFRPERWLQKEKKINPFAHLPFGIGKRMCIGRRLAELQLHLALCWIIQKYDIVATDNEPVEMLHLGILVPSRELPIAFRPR
Protocol: An incubation time of 1 min was chosen to obtain the initial rate based on the time courses (Fig. 6) and previous studies[28],[29].
To test metabolism of each analog, they were incorporated into phospholipid vesicles made from dioleoyl phosphatidylcholine and cardiolipin by sonication, as before[24],[28]. […] Samples from incubations with CYP24A1 were extracted with dichloromethane and analysed by HPLC using a 25 cm Grace Alltima C18 column, as before[27],[28]. […] For the more polar 33, the acetonitrile gradient was 30% to 100% acetonitrile for 30 min then 100% acetonitrile for 20 min, at 0.5 mL/min.

[2] = biological target: T1, rat CYP24A1; test: Time courses and product profiles for metabolism of analogs by rat CYP24A1; format: in vitro ADME
From the text: These were identified from authentic standards as 20S,25(OH)2D3, and the two C24 diastereomers of 20S,24(OH)2D3[23],[27]. One of the C24 diastereomers, 20S,24 R(OH)2D3 is the major product and accounts for almost 70% of the total products. […] There were two major products formed from this analog, RT27 and RT30 (indicated by arrows), which accounted for approximately 20% and 30% of the total products, respectively. Compound 23 (Fig. S1E) was converted to at least 6 different products by the incubation with CYP24A1. In contrast, 13 tested under identical conditions generated only one major product with a retention time of 20 min (RT20) and three minor products (Fig. S1D). By 10 min of incubation, almost all of 13 had been metabolized by CYP24A1.
The activity of CYP24A1 with the different analogs was determined as a function of time to determine the initial linear region that could be used for kinetic studies, and to determine any differences in the pattern between analogs. […] The major product of 13 (Fig. S1C, RT20), accounted for 71% of the total secosteroids (products and substrate) at one min and by 20 min it was 95% of all secosteroids. The time course for 20S(OH)D3 in comparison to 4 and 33, reached maximum product formation early in the incubation, with the amount of product at the end of the incubation being only 2.2-fold higher than at one min. By 20 min, less than 15% of the 20S(OH)D3 had been metabolized. […] While initially being metabolized at the lowest rate of any of the analogs, 33 maintained its initial rate longer with more product being present at the end of the 20 min incubation than for any of the other analogs except 13 (Fig. 6).
Figure 6 Time courses for metabolism of 20S(OH)D3 analogs in phospholipid vesicles by rat CYP24A1. 20S(OH)D3, 4, 13, 23 and 33 were incorporated into phospholipid vesicles at a ratio of 0.018 mol/mol phospholipid and incubated with 0.14 µM rat CYP24A1 at 37 °C. Products were analyzed by HPLC.
Rat CYP24A1, mouse CYP27B1 and adrenodoxin and human adrenodoxin reductase were expressed in E. coli and purified as described before[28],[30],[35]. […] Samples from incubations with CYP24A1 were extracted with dichloromethane and analysed by HPLC using a 25 cm Grace Alltima C18 column, as before[27],[28]. […] Products from incubations with CYP27B1 were similarly extracted with dichloromethane and analyzed by reverse phase HPLC using a 15 cm Grace Smart C18 column and an acetonitrile in water gradient (10 min 45% to 100% acetonitrile then 20 min at 100% acetonitrile, at 0.5 mL/min).
Supplementary Fig. S1. […] Samples were analyzed by reverse-phase HPLC using an acetonitrile in water gradient as described in the Methods. […]

Compound | Km, fold lower than that for 20S(OH)D3 ([1]; rat CYP24A1) | kcat/Km, higher than for the next best analog, 4 ([1]; rat CYP24A1) [%] | Km [1] [mmol/mol PL] | substrate metabolized by CYP24A1 ([2]; by 10 min of incubation) | metabolism by CYP24A1 relative to 20S(OH)D3 ([2]; by 20 min, fold greater than 20S(OH)D3) [fold] | Km, fold higher than for 4 ([1]; rat CYP24A1) | catalytic efficiency, fold lower than for 13 ([1]; rat CYP24A1) [fold] | amount of product at end of incubation relative to one min ([2]; 20 min incubation versus one min) [fold] | substrate metabolized by CYP24A1 ([2]; by 20 min)
C=C1CC[C@H](O)C/C1=C/C=C1\CCC[C@@]2(C)[C@H]1CC[C@@H]2[C@@](C)(O)CCOC(C)C [compound 13] | 3–4 fold | 72 | 7.9 ± 1.5 | almost all | 6 | – | – | – | –
C=C1CC[C@H](O)C/C1=C/C=C1\CCC[C@@]2(C)[C@H]1CC[C@@H]2[C@@](C)(O)CCCC(C)C [20S(OH)D3, 20S-hydroxyvitamin D3] | – | – | 34.8 ± 9.4 | – | – | over 17 fold | 13 | 2.2 | less than 15%
